Reference: patent US5846720A, “Methods of determining chemicals that modulate expression of genes associated with cardiovascular disease” (Oncogene Science, Inc., priority 1996, dated 1998)
Like-named read-outs stand apart in the source and are kept apart here.

How the values were obtained:
[1] = test system: MMTV promoter; experiment: MMTV promoter/luciferase reporter assay (high-throughput screen I, control for specificity), M10 cells; format: cell-based, mouse; conditions: for MMTV fold induction relative to solvent control: transcriptional activators, original high-throughput assay
Description: pMluci and pSV2Neo, an antibiotic resistance plasmid (84), were co-transfected into NIH/3T3 mouse fibroblast cells using the calcium phosphate precipitation method (85) with a commercially available kit (Pharmacia, Piscataway N.J.). Two days later, cells were transferred to media containing 0.4 mg/ml G418 and were grown for an additional 10-14 days. G418-resistant clones were isolated by standard methods. Once sufficient cell numbers were obtained, clones were analyzed based on several criteria: constitutive luciferase production, induction of luciferase expression by dexamethasone ([…], Sigma, St. Louis, Mo.), satisfactory attachment to microtiter plates used in the high-throughput screen (see section G) and acceptable standard deviation in multiple luciferase expression assays (see below for assay protocol). This analysis was carried out using the luciferase assay conditions described above. Of the clones which satisfied the above criteria for the high throughput screen, one clone, M10, was selected for use.

[2] = test system: G-CSF promoter; experiment: G-CSF promoter/luciferase reporter assay (high-throughput screen I), G21 cells; conditions: for GCSF fold inhibition relative to solvent control: transcriptional inhibitors; for GCSF fold inhibition relative to solvent control / GCSF fold induction relative to solvent control: Table 2, 6 h incubation; for GCSF fold induction relative to solvent control: transcriptional activators; for scored as positive in repeat assays (G-CSF): 48 independent luciferase assays, same day
[3] = test system: hGH promoter; experiment: hGH promoter/luciferase reporter assay (high-throughput screen I), 532 cells; format: cell-based, rat; conditions: for hGH fold induction relative to solvent control: transcriptional activators
Source text: 6. a GC rat pituitary cell line, transfected with the growth hormone reporter plasmid, designated 532, deposited under ATCC Accession No. CRL 10663.

[4] = transcriptional inhibitors, Table 2, 6 h incubation
[5] = Table 2, 6 h incubation, 360 min

Row | SMILES | MMTV fold induction relative to solvent control ([1]; Table 2, 6 h incubation) | GCSF fold induction relative to solvent control [2] | hGH fold induction relative to solvent control ([3]; Table 2, 6 h incubation) | other results
1 | CN(C)c1ccc(C(=N)c2ccc(N(C)C)cc2)cc1 [Chemical 183] | – | – | – | MMTV fold inhibition relative to solvent control [1, 4]: 0.70 fold; GCSF fold inhibition relative to solvent control [2]: 0.72 fold; hGH fold inhibition relative to solvent control [3, 4]: 4.00 fold
2 | CC(=O)c1ccc[nH]1 [Chemical 70] | 0.85 fold | 0.43 fold | 9.26 fold | –
3 | ClCCCCCBr [Chemical 2097] | 1.22 fold | 5.09 fold | 0.88 fold | –
4 | Nc1c(Br)cc([N+](=O)[O-])cc1[N+](=O)[O-] [Chemical 2010] | – | – | – | MMTV fold inhibition relative to solvent control [1, 4]: 3.57 fold; GCSF fold inhibition relative to solvent control [2]: 0.80 fold; hGH fold inhibition relative to solvent control [3, 4]: 0.63 fold
5 | O=c1[nH]c(=O)n([C@H]2C[C@H](O)[C@@H](CO)O2)cc1Br [Chemical #543, 5-Bromo-2'-deoxyuridine] | 0.98 fold | 7.17 fold | 0.72 fold | –
6 | c1ccc(-c2cccc(-c3ccccn3)n2)nc1 [Chemical 453] | – | 0.79 fold | 0.58 fold | MMTV fold induction relative to solvent control [1, 5]: 13.30 fold
7 | Brc1cccc(-c2ccccc2)c1 [Chemical 1994] | 0.63 fold | 3.29 fold | 0.34 fold | –
8 | CC(=O)c1c(C)cc(NC(C)(C)C)nc1NC(C)(C)C [Chemical 40] | 0.27 fold | 5.62 fold | 0.62 fold | –
9 | CC1(C)O[C@@H]2C[C@H]3[C@@H]4CCC5=CC(=O)C=C[C@]5(C)[C@@]4(F)[C@@H](O)C[C@]3(C)[C@]2(C(=O)CO)O1 [Chemical 848] | 2.43 fold | 0.75 fold | 1.28 fold | –
10 | CC1(C)[C@H]2CC[C@]1(C)C(=O)C2 [Chemical 1720] | – | – | – | MMTV fold inhibition relative to solvent control [1, 4]: 0.66 fold; GCSF fold inhibition relative to solvent control [2]: 0.65 fold; hGH fold inhibition relative to solvent control [3, 4]: 4.76 fold
11 | CCN(CC)CCCC(C)Nc1c2ccc(Cl)cc2nc2ccc(OC)cc12 (stereo not drawn) [Chemical 423] | 0.64 fold | 2.39 fold | 0.56 fold | –
12 | O=C(O)C1CCC1 [Chemical 1804] | 0.49 fold | 1.05 fold | 9.41 fold | –
13 | CCn1c(=O)[nH]c2ccccc21 [Chemical 322] | 1.12 fold | 0.60 fold | 11.18 fold | –
14 | O=C(O)c1[nH]c(=O)[nH]c(=O)c1I [Chemical 633] | 2.46 fold | 1.02 fold | 0.86 fold | –
15 | COc1ccc(CC(=O)O)cc1OC [Chemical 629] | 2.48 fold | 0.85 fold | 1.05 fold | –
16 | N=c1ccc2nc3ccc(N)cc3sc-2c1 [Chemical 836] | 0.58 fold | 3.20 fold | 0.23 fold | –
17 | CCOc1ccc2nc3cc(N)ccc3c(N)c2c1 [Chemical 790] | 0.58 fold | 0.01 fold | 5.94 fold | –
18 | O=P(O)(O)Oc1c[nH]c2ccc(Br)c(Cl)c12 [Chemical 541] | – | – | – | MMTV fold inhibition relative to solvent control [1, 4]: 0.86 fold; GCSF fold inhibition relative to solvent control [2]: 0.90 fold; hGH fold inhibition relative to solvent control [3, 4]: 6.25 fold
19 | O=NN(O)c1ccccc1 [Chemical #1783, Cupferron] | 0.89 fold | 6.55 fold | 0.32 fold | –
20 | ClCCN1CCCCC1 [Chemical 254] | 0.98 fold | 4.09 fold | 0.90 fold | –
21 | O=C1CCCCC1Cl (stereo not drawn) [Chemical 2148] | 2.82 fold | 0.45 fold | 0.92 fold | –

Row | SMILES | MMTV fold induction relative to solvent control ([1]; Table 2, 6 h incubation) | GCSF fold induction relative to solvent control [2] | hGH fold induction relative to solvent control ([3]; Table 2, 6 h incubation) | other results
22 | CN(C)c1ccc(C(=C2C=CC(=[N+](C)C)C=C2)c2ccc([N+](C)(C)C)cc2)cc1 [Chemical 670] | 0.79 fold | > 3 fold | 0.52 fold | –
23 | O=C(O)CC1NC(=O)NC1=O (stereo not drawn) [Chemical 630] | – | – | – | MMTV fold inhibition relative to solvent control [1, 4]: 0.74 fold; GCSF fold inhibition relative to solvent control [2]: 0.70 fold; hGH fold inhibition relative to solvent control [3, 4]: 3.57 fold
24 | O=NN(O)c1ccccc1 [#1783] | – | – | – | scored as positive in repeat assays (G-CSF) [2]: scored as positive only in half of the 48 repeat assays
25 | Cc1cc(N)sn1 [Chemical 1397] | 1.13 fold | 3.63 fold | 0.57 fold | –
26 | Cc1cc(=O)oc2cc(OCC(=O)O)ccc12 [Chemical 1764] | – | – | – | MMTV fold inhibition relative to solvent control [1, 4]: 0.82 fold; GCSF fold inhibition relative to solvent control [2]: 0.55 fold; hGH fold inhibition relative to solvent control [3, 4]: 7.14 fold
27 | Nc1c(Cl)ncnc1Cl [Chemical 1269] | 2.18 fold | 0.72 fold | 0.91 fold | –
28 | Cc1c(C(=O)O)c(O)cc2c1C(=O)c1c(O)c([C@@H]3O[C@H](CO)[C@@H](O)[C@H](O)[C@H]3O)c(O)c(O)c1C2=O [Chemical 1770] | – | – | – | MMTV fold inhibition relative to solvent control [1, 4]: 0.57 fold; GCSF fold inhibition relative to solvent control [2]: 0.54 fold; hGH fold inhibition relative to solvent control [3, 4]: 10.00 fold
29 | O=c1c(O)c(-c2ccc(O)cc2O)oc2cc(O)cc(O)c12 [Chemical 371] | – | – | – | MMTV fold inhibition relative to solvent control [1, 4]: 0.89 fold; GCSF fold inhibition relative to solvent control [2]: 11.11 fold; hGH fold inhibition relative to solvent control [3, 4]: 0.41 fold
30 | Cc1c(C2(c3cc(Br)c(O)c(Br)c3C)OS(=O)(=O)c3ccccc32)cc(Br)c(O)c1Br [Chemical 1251] | 0.33 fold | 0.14 fold | 15.19 fold | –
31 | Clc1cc(Cl)cc(Br)c1 [Chemical 1255] | 1.09 fold | 6.74 fold | 0.43 fold | –
32 | NC(=O)N1c2ccccc2CCc2ccccc21 [Chemical 299] | 0.47 fold | 0.53 fold | 5.46 fold | –
33 | CCOC(=O)c1c[nH]c(=S)[nH]c1=O [Chemical 1740] | 0.87 fold | 0.74 fold | 17.77 fold | –
34 | CCCCCCCCCCCCCCCC(=O)OCC(COC(=O)CCCCCCCCCCCCCCC)OC(=O)CCCCCCCCCCCCCCC [Chemical 856] | 0.42 fold | 0.28 fold | 6.49 fold | –
35 | CC(=O)NCCCC[C@H](NC(C)=O)C(=O)O [Chemical 577] | – | – | – | MMTV fold inhibition relative to solvent control [1, 4]: 0.68 fold; GCSF fold inhibition relative to solvent control [2]: 0.64 fold; hGH fold inhibition relative to solvent control [3, 4]: 4.00 fold
36 | CC(C=O)=CC=CC(C)=CC=CC=C(C)C=CC=C(C)C=CC1=C(C)CCCC1(C)C [Chemical 519] | 2.76 fold | 1.15 fold | 0.68 fold | –
37 | O=C(N[C@H](CO)[C@H](O)c1ccc([N+](=O)[O-])cc1)C(Cl)Cl [Chemical 2191] | 7.32 fold | 0.37 fold | 0.35 fold | –
38 | CN(C)c1ccc2cc3ccc(N(C)C)cc3nc2c1 [#80] | – | – | – | activation of the G-CSF promoter (dose response) ([2]; G21 cells): specifically activated the G-CSF promoter; EC50 ([2]; read-out: ED50 (concentration of chemical resulting in 50% maximal stimulation), G-CSF reporter cell line G21, range over the three chemicals): 5 to 70 µM
39 | CC(=O)n1ccnc1 [#58] | – | – | – | scored as positive in repeat assays (G-CSF) [2]: scored as positives in every single one of these assays
40 | c1ccc(-c2cccc(-c3ccccn3)n2)nc1 [#453] | – | – | – | effect of replacing DMSO by methanol on MMTV activation ([1]; chemical dissolved in methanol): did not affect its ability to activate the MMTV promoter; MMTV fold induction relative to solvent control [1, 5]: 13.3 fold
41 | C[C@]12C=CC(=O)C=C1CC[C@@H]1[C@@H]2[C@@H](O)C[C@@]2(C)[C@H]1CC[C@]2(O)C(=O)CO [Chemical 764] | – | – | – | MMTV fold inhibition relative to solvent control [1]: 0.59; hGH fold inhibition relative to solvent control [3]: 4.54
42 | CC(=O)N(C)c1ccc(N)cc1 [#1374] | – | – | – | scored as positive in repeat assays (G-CSF) [2]: scored as positives in every single one of these assays
